Data: US6787572B2, “Use of ubiquinone Q10 for the local treatment and prevention of post-surgical ophthalmologic pathologies” (priority 1999, dated 2004)

What was measured:
[1] = test system: RCE cells (Rabbit Corneal Epithelial Cells); test: Malondialdehyde assay (lipid peroxidation / free radical production) after radiation; assay type: cell-based; conditions: 2 h preincubation
From the text: The malondialdehyde is a product of the lipid peroxidation which occurs following exposure to free radicals of polyinsaturated fat acids. The malondialdehyde production is then routinely interpreted as a production index of the radicals themselves by means of treatment with electromagnetic radiations or oxidant substances. The Q10, as antioxidant, decreases the malondialdehyde production by indicating an action thereof which inhibits the free radicals' formation. To perform the malondialdehyde assay, RCE cells (Rabbit Corneal Epithelial Cells which are rabbit corneal keratocytes immortalized with SV40) have been plated at the density of 5×10^5 cell/plate in 10 plates of Petri with 10-cm diameter and incubated overnight in 5% CO2 atmosphere, 37° C. Then, the plates have been preincubated for 2 hours with Q10 10 μM, Vit.E, Vit. […] At the moment of the test the cells have been detached with trypsin according to standard procedures and counted by means of cell-counting chamber. […]
At 300 μl of buffy coat of each sample, 300 μl of thiobarbituric acid (TBA) by 1% have been added. The mixtures have been incubated at 95° C. for 30 minutes, centrifugated for 20 minutes at 12,000 RPM and the optic absorption of the buffy coat resulting by spettrophotometric analysis at λ=532 nm has been assessed. […]

[2] = test system: RCE cells; test: Counting of cumulative apoptotic deaths by videomicroscopy at time intervals; assay type: cell-based, rabbit; conditions: Q10 10 μM in Lutrol F127; 193 nm excimer laser and 254 nm UV; 24-72 hours after radiation; FIG. 6
From the text: The videomicroscopy at time intervals is up to now one of the few techniques, if not the only one, enabling to have, apart from the cell death-type characterization, the exact quantification thereof too. In fact by continuously considering the cell population it is possible to calculate the number of cumulative deaths without losing any death event due to the disintegration of the cell body which typically occurs during apoptosis.
To perform the experiment RCE cells have been plated at the density of 5×10^5 cells/plate with 10-cm diameter and incubated overnight at 37° C., CO2 10%. Subsequently, the plates have been preincubated for 2 hours with Q10 10 μM dissolved in the Lutrol F127^MT solution or with Lutrol F127™ only. The culture medium has been then replaced by 8 ml of sterile PBS, additioned with Ca^++ and Mg^++ to avoid the cell detachment from the support, and the plates have undergone treatment with excimer laser and λ=254 UV radiation in a Stratalinker apparatus, model 1800 (Stratagene) with various doses. Subsequently the PBS has been replaced by fresh culture medium additioned with the above reagents. […]

[3] = test system: RCE cells; test: Counting of vital cells by trypan blue exclusion test after radiation; assay type: cell-based, rabbit; conditions: Q10 10 μM in Lutrol F127; excimer laser and 254 nm UV (15,000 μJ/cm^2); FIGS. 5a, 5b
Procedure: However, the fact that the Q10 has a general protection effect against death by radiation is an important data in preventing […] collateral effects. In order to perform the trypan blue test, RCE cells have been plated at a density of 5×10^5 cells/plates with 10-cm diameter incubated overnight at 37° C., […]. Subsequently, the plates have been preincubated for 2 hours with Q10 10 μM dissolved in the Lutrol F127^MT solution or with Lutrol F127™ only. The culture medium has been then replaced by 8 ml of sterile PBS, additioned with Ca^++ and Mg^++ to avoid the cell detachment from the support, and the plates have undergone treatment with excimer laser and λ=254 UV radiation in a Stratalinker apparatus, model 1800 (Stratagene). Subsequently the PBS has been replaced by fresh culture medium additioned with the above reagents. The plates have been incubated for the time shown in FIG. 6a and in FIG. 6b and subsequently detached by trypsin according to standard procedures and resuspended in PBS. To the cell suspension a trypan blue solution in PBS by 1% concentration has been added immediately before the counting performed by means of cell-counting chamber. The number of live cells is shown in the FIGS. 4, 5a and 5b in the non-treated sample percentage.

[4] = cited from earlier work
[5] = test system: RCE cells; test: ATP levels after excimer laser or 254 nm radiation (firefly luciferase kit); assay type: cell-based, rabbit; conditions: Q10 10 μM in Lutrol F127; 2 h preincubation; 193 nm excimer laser (FIG. 2a) or 254 nm UV (FIG. 2b)
Procedure: In order to perform the ATP test, RCE cells have been placed at the density of 5×10^5 cells/plate in 10 plates of Petri with 10-cm diameter and incubated overnight in 5% CO2 atmosphere, 37° C. Subsequently the plates have been preincubated for 2 hours with Q10 at 10 μM dissolved in the Lutrol F127™ solution or with Lutrol F127™ only. The culture medium has been then replaced by 8 ml of sterile PBS, additioned with Ca^++ and Mg^++ to avoid the detach of the cells from the support and the plates have been submitted to treatment with excimer laser (λ=193 nm) as shown by FIG. 2a or with 254 nm ultraviolet laser, as shown in FIG. 2b. Subsequently the PBS has been replaced by fresh culture medium additioned with the above reagents and the plates have been incubated for further 2 hours. At the moment of the assay the cells have been detached with trypsin according to standard procedures and counted by means of cell-counting chamber. […] The ATP quantification in the extracts has been performed by the “ATP Determination Kit” (Molecular Probes, USA) kit, based upon the firefly lucipherase according to the supplier instructions. To detect fluorescence, an analyzer for liquid scintillation (Camberra Packard, USA) preset for the bioluminescence analysis has been utilized.

For `COC1=C(OC)C(=O)C(C/C=C(\C)CC/C=C(\C)CC/C=C(\C)CC/C=C(\C)CC/C=C(\C)CC/C=C(\C)CC/C=C(\C)CC/C=C(\C)CC/C=C(\C)CCC=C(C)C)=C(C)C1=O` [Q10, ubiquinone Q10], the “malondialdehyde levels following treatment with UV at 254 nm” value ([1]; Q10 10 μM in Lutrol F127, alone or in combination with Vit.E, Vit.C, 254 nm UV 15,000 μJ/cm^2, FIG. 1a) was “protective effect”, the “malondialdehyde production following treatment with 193 nm excimer laser” value ([1]; Q10 10 μM in Lutrol F127, various doses of 193 nm excimer laser, FIG. 1b) was “reductive effect against the malondialdehyde production” and the cumulative apoptotic deaths [2] was “protective effect on cells treated with 193 nm excimer laser and 254 nm UV radiation”. For the same compound, the “vitality of cells (number of live cells, trypan blue)” value [3] was “protective effect on the vitality of cells”, the solubility in water [4] was “non-hydrosoluble substance” and the “ATP level following radiation” value [5] was “protective effect opposing the decrease in the ATP level”.
